From patent US20250352448A1, “COMPOSITION FOR IMPROVING SKIN CONDITIONS” (AJINOMOTO CO., INC., priority 2022, published 2025)

Test system: caspase-14
Assay: caspase-14 production in amino acid-depleted epidermal keratinocytes (ELISA)
Type: cell-based
Details: human skin-simulating medium 2, cultured 4 days
Description: Culture media ([…] medium) used for cell culture contain amino acids necessary for cells to survive and grow. […] human skin-simulating medium 2: The essential amino acids in D-MEM (Life Technologies 21068-028) were changed to the concentrations shown in Table 10, human skin-simulating medium 2. […] The next day, the medium was replaced with the medium of evaluation condition (5)-(7). • Evaluation condition (5): Human skin-simulating medium 2 (hereinafter the sample evaluated under evaluation condition (5) is referred to as “Control 3”). • Evaluation condition (6): Medium obtained by adding His (final concentration 0.2 mM), Leu (final concentration 0.8 mM), Val (final concentration 0.8 mM) to human skin-simulating medium 2 (hereinafter the sample evaluated under evaluation condition (6) is referred to as “Example 3”). • Evaluation condition (7): Medium obtained by adding His (final concentration 0.2 mM) to human skin-simulating medium 2 (hereinafter the sample evaluated under evaluation condition (7) is referred to as “Example 4”). […] The protein extract of the above-mentioned 4 was diluted with water, and the protein was quantified using Micro BCA Protein Assay Kit (Thermo Fisher Scientific 23235). • 6. The amount of caspase-14 determined in the above-mentioned 4 was normalized by the amount of protein determined in the above-mentioned 5. • 7. […]

- amount of caspase-14 (normalized by protein amount, Control 3 as 100%) (Experimental Example 2-3, FIG. 3, final His 0.2, Leu 0.8, Val 0.8 mM or His 0.2 mM alone): remarkably increased
- amount of caspase-14 (normalized by protein amount, Control 7 as 100%) (Experimental Example 3-3-1, FIG. 6A, final His 0.2, Leu 0.8, Val 0.8 mM, Val 0.8 mM alone or His 0.2 mM alone): remarkably increased
SMILES: N[C@@H](Cc1c[nH]cn1)C(=O)O [His, histidine]
